Data as given in paper PMC5321753, “Enhanced expression of ADCY1 underlies aberrant neuronal signalling and behaviour in a syndromic autism model” (Nature Communications, 2017).

Key:
Fmr1 KO mice [1] = test system: Fmr1 KO mice; parameters: method as in PMID 27445731; details: cited from earlier work
fly model of FXS = test system: fly model of FXS; parameters: method as in PMID 25568131; details: cited from earlier work
Fmr1 KO mice [2] = test system: Fmr1 KO mice; parameters: method as in PMID 25568131; details: cited from earlier work
WT and Fmr1 KO mice [3] = test: Light/dark test; type: in vivo, mouse
Procedure: Light/dark test was examined as described in our previous study. Light/dark test was performed using 3-month (+/−10 days) old mouse, which was first placed in the dark half of the chamber (Coulbourn Instruments). After 1 min of habituation, the trap door was opened and the mouse was allowed to move freely between the two chambers for 5 min. The time spent in each chamber and the number of entries into the lit side were recorded.
(§1) NB001 was dissolved in water to give a 25 mM stock solution. The stock was diluted in saline and IP injected into mice at 1 mg kg^−1 body weight. In all cases, the drug was administered 1 h before testing. Control mice were treated similarly but injected with saline.
(§2) To inhibit phosphodiesterase (PDE), rolipram was dissolved in 10% kolliphore and IP injected into mice at 0.5 or 0.03 mg kg^−1. The use of the higher dose (that is, 0.5 mg kg^−1) was to ensure sufficient inhibition of PDE[44][45]. […] Rolipram- or vehicle (10% kolliphore)-injected mice were examined with light/dark test and AGS 30 min after drug administration.

cAMP = test system: cAMP; parameters: method as in PMID 9844008; details: lower dose 0.03 mg kg^-1; cited from earlier work
WT and Fmr1 KO mice [4] = test: Audiogenic seizures (AGS) induced by 120 dB sound; type: in vivo, mouse
Procedure: Audiogenic seizures (AGS) were examined with 21- to 24-day-old-mouse (7), as this phenotype is dependent on the age of the mouse and only detected in juvenile Frm1 KO mouse. Mouse was placed in a box (30 cm L × 17 cm W × 12 cm H) with a flat plastic lid. A personal alarm (Streetwise, item # SWPDAL) was taped to the lid of the box and wired to a DC power supply to keep the sound amplitude constant. The mouse was allowed to acclimatize to the box for 5 min, following which 120 dB sound was emitted from the alarm for 2 min. The number of mice undergoing seizure activity within the 2-min period was counted. Audiogenic seizures were classified into different stages: wild running, clonic/tonic seizure and death.
as §1, §2

ADCY1 = ADCY1 protein (western blot) and Adcy1 mRNA (qRT-PCR) in cultured hippocampal neurons after DHPG; type: cell-based, mouse; details: DHPG 100 μM
Procedure: (§3) Primary hippocampal neurons were cultured as described, and used for the examination of mGluR1/5-mediated signalling and protein synthesis. Neurons were treated with 100 μM DHPG ((RS)-3,5-dihydroxyphenylglycine). Protein level and mRNA level were examined by western blot (for ADCY1, β-actin, p-ERK1/2 and ERK1/2) and quantitative RT-PCR (for Adcy1 and Gapdh mRNA), respectively.

ERK1/2 = ERK1/2 activation in cultured hippocampal neurons after DHPG; type: cell-based, mouse; details: both WT and Fmr1 KO neurons, DHPG 100 μM
Procedure: as §3

[5] = Fmr1 KO mice, rolipram at 0.5 or 0.03 mg kg^-1, systemic
[6] = Fmr1 KO mice, rolipram 0.03 mg per kg, 30 min before 120 dB stimulation
[7] = Fmr1 KO mice, rolipram 0.5 mg kg^-1 IP, 30 min before testing, 120 dB
[8] = WT mice, rolipram 0.03 mg per kg, 30 min before 120 dB stimulation
[9] = WT mice, rolipram 0.5 mg kg^-1 IP, 30 min before testing, 120 dB

In the case of `COc1ccc(C2CNC(=O)C2)cc1OC1CCCC1` (stereo not drawn) [rolipram], the “signalling abnormalities in the hippocampus” value (Fmr1 KO mice [1]) is listed as “failed to correct”, the “learning and memory in the fly model of FXS” value (fly model of FXS) is listed as “improved” and the “exaggerated mGluR1/5-mediated long-term synaptic depression phenotype” value (Fmr1 KO mice [2]) is listed as “rescued”. The “abnormal behaviour in light/dark test” value (WT and Fmr1 KO mice [3]; [5]) was “did not correct”, the “behavioral changes in light/dark test (treatment effect)” value (WT and Fmr1 KO mice [3]; WT or Fmr1 KO mice, rolipram 0.03 mg per kg i.p., 30 min after injection) was “n.s” and the “behavioural changes in light/dark test (drug effect)” value (WT and Fmr1 KO mice [3]; WT or Fmr1 KO mice, rolipram 0.5 mg kg^-1 i.p., 30 min after injection) was “does not cause significant behavioural changes”. The cAMP changes (cAMP) was “not sufficient to cause cAMP changes”, the “% Clonic/tonic seizure” value (WT and Fmr1 KO mice [4]; [6]) was 35.7% and the “% Death” value (WT and Fmr1 KO mice [4]; [6]) was 14.3%. For the same compound, the “% Wild running” value (WT and Fmr1 KO mice [4]; [6]) was 50%, the “% Clonic/tonic seizure” value (WT and Fmr1 KO mice [4]; [7]) was 46.7% and the “% Death” value (WT and Fmr1 KO mice [4]; [7]) was 13.3%. For the same compound, the “% Wild running” value (WT and Fmr1 KO mice [4]; [7]) was 60%, the AGS (WT and Fmr1 KO mice [4]; [5]) was “did not correct” and the “% Clonic/tonic seizure” value (WT and Fmr1 KO mice [4]; [8]) was 0%. The “% Death” value (WT and Fmr1 KO mice [4]; [8]) was 0%, the “% Wild running” value (WT and Fmr1 KO mice [4]; [8]) was 13.3% and the “% Clonic/tonic seizure” value (WT and Fmr1 KO mice [4]; [9]) was 0%. For the same compound, the “% Death” value (WT and Fmr1 KO mice [4]; [9]) was 0% and the “% Wild running” value (WT and Fmr1 KO mice [4]; [9]) was 25%.
For `NC(C(=O)O)c1cc(O)cc(O)c1` (racemic) [DHPG, (RS)-3,5-dihydroxyphenylglycine], the “ADCY1 protein level in Fmr1 KO neurons” value (ADCY1; cultured Fmr1 KO hippocampal neurons) was “no DHPG-triggered increase”, the “Adcy1 mRNA levels” value (ADCY1; cultured WT and Fmr1 KO hippocampal neurons) was “did not alter” and the “ADCY1 protein level in WT neurons” value (ADCY1; cultured WT hippocampal neurons) was “up-regulation”. The “downstream intracellular signalling target ERK1/2” value (ERK1/2) was “activates”.
